What was measured:
[1] = system: cell line cultured from patients with corticosteroid resistant asthma; details: after addition of vitamin D; promotion of regulatory T cells; cited from earlier work
Airway smooth muscle = details: cited from earlier work
asthmatic adults = details: cited from earlier work
[2] = system: adults with hereditary emphysema; details: cited from earlier work
[3] = system: adult rats with preexisting elastase-induced emphysema; details: cited from earlier work
[4] = system: mice exposed to cigarette smoke; details: cited from earlier work
patients with COPD = details: extrafine, 1.1 microns in diameter, HFA pMDI; cited from earlier work
[5] = Aerosol performance of dry powder inhaler formulation, next generation Impactor; type: physicochemical; details: inhaler operated at 15 L/min
Experimental: Inhaled corticosteroids (ICS) mometasone furoate or fluticasone furoate are prepared with volume median particle size of less than 5 microns. Calcitriol (1, 25-Dihydroxycholecalciferol) is also prepared in crystalline form and subsequently micronized to a volume median particle size of less than 5 microns. The ICS's are incorporated at appropriately 30-50% of the commercial ICS dose when administered via a passive dry powder inhaler, due to the efficiency of the invention delivered by a dry powder inhaler (DPI) available from MicroDose Therapeutx, Inc. One preferred embodiment utilizes an ICS dosed once daily, i.e. mometasone furoate or fluticasone furoate, to coincide with a once daily dose of the vitamin D receptor agonist. This combination product is designed to reverse corticoidsteroid resistance (CR) by adding the protective anti-inflammatory effects of calcitriol with the local anti-inflamatory effects of these ICS's. The inhaler is operated at 15 L/min and for both medicaments, the aerosol performance with a fine particle fraction (% of particles exiting the inhaler that are less than 5.8 microns) is […] with at least 10% of particles in the less than 2.1 micron size range when tested with a next generation Impactor.
Calcitriol is a synthetic vitamin D analog and has been used as a pharmaceutical as well as a nutraceutical. […]

Compound: vitamin D
- steroid sensitivity [1]: increased steroid sensitivity
- airway smooth muscle proliferation (Airway smooth muscle): slow
- mean increase in FEV1 for every 1 ng/mL increase in systemic vitamin D (asthmatic adults): 22.7 mL

Compound: CC1=C(/C=C/C(C)=C/C=C/C(C)=C/C(=O)O)C(C)(C)CCC1 [ATRA, All Trans Retinoic Acid]
- trial outcome [2]: not been successful
- alveolus formation [3]: induces alveolus formation
- formation of pulmonary emphysema ([4]; mice exposed to cigarette smoke): diminishes the formation of pulmonary emphysema
- distance between alveolar walls ([4]; mice with emphysema produced by cigarette smoke): decreases the distance between alveolar walls

Compound: CCC(=O)OCC(=O)[C@@]1(OC(=O)CC)[C@@H](C)C[C@H]2[C@@H]3CCC4=CC(=O)C=C[C@]4(C)[C@@]3(Cl)[C@@H](O)C[C@@]21C [beclomethasone dipropionate]
- air trapping (patients with COPD): significant reduction in air trapping

Compound: C=C1/C(=C\C=C2/CCC[C@]3(C)[C@@H]([C@H](C)CCCC(C)(C)O)CC[C@@H]23)C[C@@H](O)C[C@@H]1O [calcitriol, 1, 25-Dihydroxycholecalciferol]
- particles in the less than 2.1 micron size range [5]: at least 10%

— patent US20120077786A1, “METHODS AND COMPOSITIONS FOR DISEASE TREATMENT USING INHALATION” (priority 2010, published 2012)
